Assay [1] can be described thus: Luminescence Cell-Based Dose Retest to Confirm Inhibitors of Cancer Stem Cells. [Related pubchem assays (depositor defined):AID2717, AID2721]. The class given is functional. Particulars: Homo sapiens.
A further assay concerns the target Cytochrome P450 2C9 (Homo sapiens, UniProt P11712).
Assay [2] deals with T1, Heat shock factor protein 1 (Mus musculus, UniProt P38532).
T1 sequence (P38532 whole entry): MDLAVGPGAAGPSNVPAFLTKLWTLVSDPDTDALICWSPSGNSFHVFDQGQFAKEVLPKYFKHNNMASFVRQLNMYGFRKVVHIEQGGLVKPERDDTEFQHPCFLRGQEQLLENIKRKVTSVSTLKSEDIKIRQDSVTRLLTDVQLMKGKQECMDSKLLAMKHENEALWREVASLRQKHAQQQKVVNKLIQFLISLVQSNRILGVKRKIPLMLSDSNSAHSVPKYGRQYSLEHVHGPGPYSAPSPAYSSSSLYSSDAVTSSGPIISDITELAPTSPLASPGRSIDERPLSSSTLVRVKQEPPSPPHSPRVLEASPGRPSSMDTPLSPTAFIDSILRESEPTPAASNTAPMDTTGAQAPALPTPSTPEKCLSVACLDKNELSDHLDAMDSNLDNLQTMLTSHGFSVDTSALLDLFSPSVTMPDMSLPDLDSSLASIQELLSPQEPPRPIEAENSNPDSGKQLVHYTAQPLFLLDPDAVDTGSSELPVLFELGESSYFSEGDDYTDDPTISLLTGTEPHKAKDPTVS
As to the kind of experiment: decrease of HSF1-responsive luciferase luminescence – cell-based, NIH3T3, dose retest, confirmation (AID 2382).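 Note: NIH3T3 fibroblasts with HSF1-driven luciferase reporter stressed by proteasome inhibitor MG132; luminescence from HSF1-driven luciferase expression after 8 hours of MG132 stress.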 The class given is functional.

The subject of the next assay is H4. As to the kind of experiment: Luminescence Cell-Based Dose Response HTS to Identify Activators of 5'UTR Stem-Loop Driven Prion Protein mRNA Translation in H4 Neuroglioblastoma Cells. [Related pubchem assays: 1829 (Project Summary), 1814 (Primary HTS)]. Format: functional. Particulars: Homo sapiens.
Assay [3] can be described thus: Luminescence Cell-Based Dose Response HTS to Identify Inhibitors of 5'UTR Stem-Loop Driven Prion Protein mRNA Translation in H4 Neuroglioblastoma Cells. [Related pubchem assays: 1827 (Project Summary), 1813 (Primary HTS)]. Format: functional.
Assay [4] in a line: luciferase reporter signal suppression in cells – H4 neuroglioma cells, luminescence, dose response (AID 1990). Format: functional, cell-based.
Assay [5] in a line: alpha-synuclein stem-loop luciferase translation blockers – H4 neuroglioma cells, luminescence, confirmation (AID 1988). The class given is functional, cell-based.
Assay [6] is described as follows: Luminescence Cell-Based Dose Response HTS to Identify Activators of Luciferase Translation or Activity in H4 […] Cells. [Related pubchem assays: 1829 (Project Summary), 1814 (Primary HTS)]. The class given is functional.
The target of assay [7] is T2, Rac GTPase-activating protein 1 (Homo sapiens, UniProt Q9H0H5).
T2 sequence (Q9H0H5 whole entry): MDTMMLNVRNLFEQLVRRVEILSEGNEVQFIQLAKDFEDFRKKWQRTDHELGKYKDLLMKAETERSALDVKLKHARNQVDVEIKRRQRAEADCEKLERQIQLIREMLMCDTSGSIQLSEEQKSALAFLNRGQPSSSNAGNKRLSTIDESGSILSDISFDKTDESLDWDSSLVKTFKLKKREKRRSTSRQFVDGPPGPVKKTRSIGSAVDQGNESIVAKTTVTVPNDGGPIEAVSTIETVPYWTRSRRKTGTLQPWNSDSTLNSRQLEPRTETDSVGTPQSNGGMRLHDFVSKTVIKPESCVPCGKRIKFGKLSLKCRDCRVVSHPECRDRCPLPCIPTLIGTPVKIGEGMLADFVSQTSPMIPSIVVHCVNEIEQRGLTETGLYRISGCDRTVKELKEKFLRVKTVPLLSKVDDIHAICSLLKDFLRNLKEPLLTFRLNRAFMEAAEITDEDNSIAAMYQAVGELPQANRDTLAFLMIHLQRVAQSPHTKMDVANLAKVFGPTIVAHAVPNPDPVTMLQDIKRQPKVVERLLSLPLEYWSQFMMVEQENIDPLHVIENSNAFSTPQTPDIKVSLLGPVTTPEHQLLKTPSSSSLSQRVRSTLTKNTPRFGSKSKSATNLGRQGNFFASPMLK
As to the kind of experiment: blockers of MgcRacGAP-driven Rac1 GTP hydrolysis – biochemical, ADP Hunter fluorescence, primary and confirmatory, confirmation (AID 624330). The class given is functional.

A further assay concerns the target T3, Streptokinase A (Streptococcus pyogenes serotype M1, UniProt P10520).
T3 sequence (P10520 whole entry): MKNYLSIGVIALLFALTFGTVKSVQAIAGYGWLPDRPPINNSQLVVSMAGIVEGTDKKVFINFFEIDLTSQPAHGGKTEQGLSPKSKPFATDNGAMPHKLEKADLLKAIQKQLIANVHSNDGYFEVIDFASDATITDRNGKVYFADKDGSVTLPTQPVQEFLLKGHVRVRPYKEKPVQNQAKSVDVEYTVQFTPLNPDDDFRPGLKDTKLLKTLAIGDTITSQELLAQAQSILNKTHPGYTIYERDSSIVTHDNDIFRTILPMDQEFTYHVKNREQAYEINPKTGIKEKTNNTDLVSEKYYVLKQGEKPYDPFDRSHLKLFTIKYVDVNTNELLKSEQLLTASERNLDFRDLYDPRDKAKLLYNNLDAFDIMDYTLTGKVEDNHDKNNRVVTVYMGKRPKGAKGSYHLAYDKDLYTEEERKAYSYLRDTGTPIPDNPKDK
Nature of the assay: viability-normalized secreted streptokinase activity reduction – plasminogen activation absorbance, OD405, dose response (AID 1914).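 Note: secreted streptokinase activity via plasminogen activation per viability signal from cell pellet.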 Format: functional, Streptococcus pyogenes M1 GAS.

Assay [8] deals with Streptococcus sp. 'group A'. Nature of the assay: Streptococcus pyogenes SK(-)GAS viability under kanamycin – luminescence, BacTiterGlo, confirmation, counter-screen for streptokinase expression inhibitor project, dose response (AID 1900). The class given is functional, organism-based.
A further assay deals with Streptococcus. Nature of the assay: GAS UMAA2166 growth inhibition – luminescence, BacTiterGlo, counter-screen for streptokinase expression inhibitor project, dose response (AID 1915).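 Note: potency for reduction of bacterial viability or growth.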 The class given is functional, organism-based. In general terms: The purpose of a counterscreen is to sort out artefacts and off-target activity.

Structures are written as SMILES. Activity calls are given as the source filed them. Cut-off read from the data, not from the text of the source, for most assays here: actives have a measured EC50 and inactives only a lower limit.

Chain of Cytochrome P450 2C9 (P11712 whole entry): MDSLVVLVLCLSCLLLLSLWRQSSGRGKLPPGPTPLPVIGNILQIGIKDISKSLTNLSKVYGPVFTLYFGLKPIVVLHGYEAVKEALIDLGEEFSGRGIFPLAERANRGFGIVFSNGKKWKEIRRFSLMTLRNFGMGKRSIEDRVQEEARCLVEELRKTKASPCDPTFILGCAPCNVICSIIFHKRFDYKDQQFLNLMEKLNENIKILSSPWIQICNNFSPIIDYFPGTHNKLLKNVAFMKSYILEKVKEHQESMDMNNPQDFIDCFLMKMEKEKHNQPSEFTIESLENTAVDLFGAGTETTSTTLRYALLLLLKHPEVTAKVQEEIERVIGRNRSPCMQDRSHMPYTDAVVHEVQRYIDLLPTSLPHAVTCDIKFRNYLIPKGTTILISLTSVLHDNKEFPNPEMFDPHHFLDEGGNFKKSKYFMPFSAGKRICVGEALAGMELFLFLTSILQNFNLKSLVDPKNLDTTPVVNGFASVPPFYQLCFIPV

For `COc1cc(S(=O)(=O)N2CCCCCC2)c(OC)cc1Br`, the AC50 (commonly the concentration at which the activity in the assay is half-maximal) in assay [1] was 1.01 µM (active).
Turning to `O=C1CN=C(c2cccs2)c2c(sc3c2CCCC3)N1`, the AC50 at Cytochrome P450 2C9 is 35.5 µM (inconclusive).
As to `CCOC(=O)Cn1c(CCC(=O)O)ccc1-c1ccc(F)cc1`, the EC50 (usually the midpoint of the concentration-response curve) in [2] is reported as > 195 µM (not active).
`N#Cc1ccsc1NC(=O)COC(=O)c1ccc2ccccc2c1`: the EC50 with H4 is 17.5 µM (active).
As to `CCOC(=O)Cn1nnc2c(sc3nc4c(c(-c5ccccc5)c32)CCC4)c1=O`, the EC50 in assay [3] was 3.88 µM (active); in assay [4] it was > 120 µM (not active); in [5], > 120 µM (not active).
For `CCCCCn1c(=O)c(C(=O)Nc2ccccn2)c(O)c2ccccc21`, the EC50 in [3] is 11.2 µM (active); in assay [2] it was > 195 µM (not active); in assay [4], > 120 µM (not active); in [5] it was 9.51 µM (active).
On to `CN1CCN(CC(=O)Nc2nnc(-c3cccs3)s2)CC1`, for which the EC50 in assay [2] was > 195 µM (not active).
Consider `C=C1/C(=C\C=C2/CCC[C@]3(C)[C@@H]([C@H](C)/C=C/[C@@H](O)C4CC4)CC[C@@H]23)C[C@@H](O)C[C@@H]1O` [CALCIPOTRIENE], for which, in assay [1], the AC50 was 8.81 µM (active).
For `N=C(NOC(=O)c1cccc(F)c1)c1ccccc1`, the EC50 in assay [6] is listed as > 120 µM (not active).
As to `COc1cc(/C=N/NC(=O)c2cc(C)oc2C)ccc1O`, the EC50 in [2] is > 195 µM (not active). In assay [7], the IC50 (in general, the concentration that inhibits the measured activity by half) was 37.6 µM (active).
`COc1ccc(-c2nc3cnc(N4CCNCC4)nc3n(Cc3cccs3)c2=O)cc1`: the AC50 at Cytochrome P450 2C9 is 39.8 µM (inconclusive).
In the case of `CC(C)CN(C(=O)CCCSc1nc2ccccc2[nH]1)c1c(N)n(Cc2ccccc2)c(=O)[nH]c1=O`, in assay [2], the EC50 is reported as > 195 µM (not active).
The same measure, in the same setting: under `CC(C)(C)C(=O)N1CCN(CCN2C(=O)c3cccc4cccc(c34)C2=O)CC1` stands > 195 µM (not active).
Turning to `CN1CCN(S(=O)(=O)c2cccc(C(=O)Nc3cc(C(F)(F)F)ccc3N3CCCCC3)c2)CC1`, the AC50 in assay [1] was 2.5 µM (active).
`COc1ccc(-n2c(C)nnc2O)cc1OC`: the AC50 at Cytochrome P450 2C9 is 1.78 µM (inconclusive).
Consider `COc1ccc2c(c1OC)C(=O)OC2Nc1ccc(S(=O)(=O)N=C(N)N)cc1` (stereo not given), for which the EC50 in [2] is on record as > 195 µM (not active).
As for `O=[N+]([O-])c1ccccc1CCc1cnc(Cl)s1`, the concentration giving a half-maximal response (EC50) in assay [2] was > 195 µM (not active).
Still for that read-out and setting: under `Cc1ccc(N2C(=O)c3ccccc3C2Nc2ccccc2F)nc1` (stereo not given) stands > 195 µM (not active); under `CCOc1ccccc1C(=O)Nc1ccc(NC(=O)c2ccccc2)cc1`, > 195 µM (not active).
For the compound `COc1ccccc1-c1nnc(NC(=O)CCS(=O)(=O)c2ccccc2)o1`, the EC50 (on Streptokinase A; in assay [8]; in the assay with Streptococcus) was > 150 µM (not active) in each case.
`O=C(NC(=S)N1CCCCC1c1cccnc1)c1ccc(F)cc1` (stereo not given): the EC50 (at Streptokinase A; in assay [8]; with Streptococcus) was > 150 µM (not active) each time.
As to `Cc1ccc(-c2ccc(=O)n(CCC(=O)NCCN3CCCCC3C)n2)cc1` (stereo not given), the EC50 in assay [2] is > 195 µM (not active).
In the case of `CCCc1[nH]nc2c1/C(=N/O)CC(c1ccccc1)C2` (stereo not given), the EC50 in [3] was > 120 µM (not active); in [4] it was 12.8 µM (active); in assay [5], 13.4 µM (active).
Regarding `CSc1ccc2nnc(-c3cccc(F)c3)n2n1`, the AC50 at Cytochrome P450 2C9 was 39.8 µM (inconclusive).
As for `Cc1ccc(NC(=O)CN2C(=O)NC3(CCCC3)C2=O)c(Cl)c1`, the EC50 in [2] is > 195 µM (not active).
As for `COc1ccc2c(c1)CC/C2=N\OC(=O)c1cccc(C)c1`, the concentration giving a half-maximal response (EC50) in [6] was 0.105 µM (active).
Consider `CCOc1ccc(C(=O)Nc2ccc3nc(N4CCN(CC)CC4)cc(C)c3c2)cc1`, for which the EC50 is > 120 µM (not active) in [3], 10.3 µM (active) in [4] and > 120 µM (not active) in assay [5].
Take `CC(C)CCNc1nc(N)c([N+](=O)[O-])c(NCC2CCCO2)n1` (stereo not given): the figures for the concentration giving a half-maximal response (EC50) in assay [3], in assay [4] and in assay [5] were > 120 µM (not active), 12 µM (active) and > 120 µM (not active), respectively.
Consider `CCOC(=O)c1c(C)[nH]c(C(=O)Nc2ccc(NC(C)=O)cc2)c1C`, for which the concentration giving a half-maximal response (EC50) is 3.99 µM (active) in assay [3], 10.9 µM (active) in assay [4] and 10.9 µM (active) in assay [5].
With `CC1CC1C(=O)OCc1cc(=O)n2cc(Br)ccc2n1` (stereo not given), the EC50 with H4 is > 120 µM (not active); in [6], 0.102 µM (active).
In the case of `Cc1cccc(C(=O)N/N=C/c2ccc(OC3CSC3)cc2)c1`, the concentration at half-maximal activity (AC50) in assay [1] was 1.71 µM (active).
For the compound `CC(=O)N/N=C(\C)CC(=O)NC(C)(C)C`, the EC50 in assay [2] was > 195 µM (not active).
In the case of `COc1ccc(-c2oc3ccc(N4CCOCC4)cc3c2C#CCO)cc1`, the AC50 in assay [1] is 3.96 µM (active).
On to `COc1ccc(C(=O)NCC(=O)OCC(=O)N2N=C(c3ccc(Cl)cc3)CC2c2ccco2)cc1OC` (stereo not given), for which the EC50 at Streptokinase A was > 150 µM (not active); in assay [8] it was 47 µM (active); with Streptococcus, > 150 µM (not active).
In the case of `Cc1onc(-c2ccccc2)c1C(=O)N1CCN(S(=O)(=O)c2ccc(Cl)cc2)CC1`, the EC50 in [3], in assay [4] and in assay [5] was > 120 µM (not active) each time.
Regarding `Cc1oc(-c2cc(Cl)cc(Cl)c2)cc1C(=O)NCCc1ccccc1`, the EC50 at Streptokinase A was 2.57 µM (active); in assay [8], 17.3 µM (active); with Streptococcus it was 48.3 µM (active).
With `CCOc1ccccc1NC(=O)CSc1nnc(-c2ccco2)n1Cc1ccco1`, the EC50 in assay [3], in assay [4] and in assay [5] was > 120 µM (not active) throughout.
With `Cc1c(CCC(=O)N[C@@H](C)C(=O)O)c(=O)oc2cc3oc4c(c3cc12)CCCC4`, the EC50 was 17 µM (active) in [3], 12.7 µM (active) in [4] and 14.4 µM (active) in assay [5].
As to `CC(Oc1ccccc1)C(=O)NC1=NCCS1` (stereo not given), the EC50 was 18.9 µM (active) in the assay on H4 and 94.2 µM (active) in assay [6].
For the compound `COc1ccc(S(=O)(=O)NCC2CCCN(Cc3ccc(C)o3)C2)cc1` (stereo not given), the EC50 in assay [2] was > 195 µM (not active).

These data come from ChEMBL document CHEMBL1201862, “PubChem BioAssay data set” (2004).
